Results reported in patent US4839375A, “(Aryl or heteroaromatic methyl)-2,2'-bi-1H-imidazoles and their use as anti-hypertensive agents” (Merrell Dow Pharmaceuticals Inc., priority 1987, dated 1989).

The compounds below were run against T1, dopamine β-hydroxylase (DBH) (Bos taurus, UniProt P15101) (assay: DBH inhibition, oxygen uptake followed with a polarographic electrode and oxygen monitor). Conditions: ascorbate electron donor, tyramine substrate; pH 4.5 to 5.5, preferably pH 5.0; 20° C. to 40° C., preferably 37° C.; read-out: DBH inhibitory activity, IC50 (concentration at which the reaction is inhibited by 50%).
T1 sequence (P15101 1-610): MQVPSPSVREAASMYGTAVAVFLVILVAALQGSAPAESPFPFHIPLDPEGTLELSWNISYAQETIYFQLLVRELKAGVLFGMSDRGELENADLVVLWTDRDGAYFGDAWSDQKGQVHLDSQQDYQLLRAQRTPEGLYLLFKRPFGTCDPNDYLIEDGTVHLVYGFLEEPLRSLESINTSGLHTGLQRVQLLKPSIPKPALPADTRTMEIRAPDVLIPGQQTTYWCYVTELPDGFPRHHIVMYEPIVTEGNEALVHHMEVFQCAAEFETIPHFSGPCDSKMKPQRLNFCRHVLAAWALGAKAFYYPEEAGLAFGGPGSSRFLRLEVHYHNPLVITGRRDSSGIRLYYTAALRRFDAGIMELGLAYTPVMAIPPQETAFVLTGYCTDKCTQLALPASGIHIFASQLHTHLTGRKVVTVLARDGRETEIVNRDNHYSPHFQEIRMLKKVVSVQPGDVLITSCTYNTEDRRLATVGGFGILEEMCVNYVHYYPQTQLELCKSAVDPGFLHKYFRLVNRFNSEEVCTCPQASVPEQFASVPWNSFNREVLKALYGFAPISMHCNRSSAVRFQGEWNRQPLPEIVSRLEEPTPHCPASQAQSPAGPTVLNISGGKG
Assay type: biochemical
Method: The DBH inhibitory properties of the compounds of this invention can readily be determined by standard and well-known procedures. For example, inhibition of DBH was determined by a procedure wherein enzymatic activity was ascertained in aqueous solution in the presence of molecular oxygen, an electron donor such as ascorbate, a substrate such as tyramine, an inhibitor, and the necessary cofactors for the enzyme at a pH of 4.5 to 5.5, preferably pH 5.0, and at a temperature of 20° C. to 40° C., preferably 37° C. The inhibitor was assayed over a range of concentrations. Each reaction was followed by measuring oxygen uptake as an indication of enzyme activity using a polarographic electrode and an oxygen monitor, following the method of S. May, et al., J. Biol. Chem., 256, 2258 (1981).
c1csc(Cn2ccnc2-c2ncc[nH]2)c1 [1-(2-Thienylmethyl)-2,2'-bi-1H-imidazole] was tested, and the IC50 was 65.5 µM.
For c1c[nH]c(-c2nccn2Cc2ccsc2)n1 [1-(3-thienylmethyl)-2,2'-bi-1H-imidazole], the IC50 was 29 µM.
c1c[nH]c(-c2nc(Cc3ccsc3)c[nH]2)n1 [4-(3-thienylmethyl)-2,2'-bi-1H-imidazole] gave an IC50 of 8.8 µM.
